Like-named read-outs stand apart in the source and are kept apart here. One block for each compound: values may come before it.
Tests used:
[1] = test system: P-ERK in A375 cells expressing V600E mutated BRAF; assay: cells; type: cell-based; settings: Homo sapiens, A-375, 1 h, read-out: pERK IC50 (nM) A375
Text: (§1) DMEM no-phenol red medium supplemented with L-glutamine was purchased from (Thermo Fisher Scientific). Fetal bovine serum (FBS) was purchased from VWR. Advanced ERK phospho-T202/Y204 kit—10,000 tests was purchased from Cisbio cat #64AERPEH. A375 and HCT116 cells were originally obtained from ATCC and banked by the Roche repository.
(§2) A375 is a cellular cancer model expressing V600E mutated BRAF and HCT116 a cellular cancer model expressing WT BRAF. […] ERK 1,2 phosphorylation (terminal member of the phosphorylation cascade of the MAPK pathway) is hereafter reported as main readout for the activation status of the MAPK pathway. Prior to the assay, A375 and HCT116 cell lines are maintained in DMEM no-phenol red medium supplemented with 10% fetal bovine serum (FBS). […] Briefly, 8000 cells/well in 12 μl media/well are plated in the 384-well plate and left overnight in the incubator (at 37° C. with 5% CO2-humidified atmosphere), the following day the plate is treated in duplicate with test compounds, dabrafenib and PLX8394 (the latter two as controls) at the following final drug concentrations: 10 μM-3 μM-1 μM all wells are subjected to DMSO normalization and drug incubation occurs for 1 hour. Then, 4 μl of a 4× lysis buffer supplied with the kit are added to the wells, the plate is then centrifuged for 30 second (300 rcf) and incubated on a plate shaker for 1 h at RT.
At the end of the incubation 4 μL/well of advanced P-ERK antibody solution (prepared according to manufacturer's instruction) followed by 4 μL/well of criptate P-ERK antibody solution (prepared according to manufacturer's instruction) (Cisbio cat #64AERPEH) are added to test wells. […]
(§3) The obtained fluorescence values are processed according to the formula Ratio=[…]*10000 then the average of the ratio on the blank is subtracted to all values.
Mean of the normalized points are fitted with sigmoidal curve and IC50 determined.

[2] = test system: P-ERK in HCT116 cells expressing WT BRAF; type: cell-based
Text: as §1, with “repository. 384-well microplates were purchased from Greiner Bio-One, 384-well, (With Lid, HiBase, Low volume cat 784-080).” for “repository.”
as §2
At the end of the incubation 4 μL/well of advanced P-ERK antibody solution (prepared according to manufacturer's instruction) followed by 4 μL/well of criptate P-ERK antibody solution (prepared according to manufacturer's instruction) (Cisbio cat #64AERPEH) are added to test wells.
In order to allow proper data normalization control wells non drug treated reported in the following table are always included in each plate (according to manufacturer's instruction):
The plate is then centrifuged at 300 rcf for 30 second, sealed to prevent evaporation and incubated overnight in the dark at room temperature.
The plate is then analyzed and fluorescence emission value collected through a Pherastast FSX (BMG Labtech) apparatus at […].
as §3
Data are normalized in the case of HCT116 cells (BRAF activation,) considering the average of the ratio (blank subtracted) derived by DMSO only treated cells as 0% and by considering the average of the ratio (blank subtracted) derived by dabrafenib treated cells at the concentration which provides the highest signal as 100%. Individual points are fitted with either sigmoidal or bell shape curves, and the percentage of activation compared to maximum dabrafenib-mediated activation is determined. The EC50 is the concentration at which activation equal to 50% of the maximum achieved by dabrafenib is obtained.
The Percentage of Maximum paradox inducing effect from dabrafenib is determined by evaluating the percentage at which the test compound induce its maximum P-ERK signal as percentage of the highest signal produced by dabrafenib within the dose range tested.

[3] = test system: A375 BRAF V600E cancer cells constituvely expressing luciferase; assay: Intracranial implanted A375-Luc; type: in vivo; settings: daily oral 1, 5 and 20 mg/kg for 2 weeks from day 7; immunocompromised mice
Experimental: A375 BRAF V600E cancer cells constituvely expressing luciferase were injected intracranially in immunocompromised mice. Treatment with compound Example 1 was initiated at day 7 from the intracranial injection and continued for 2 weeks. The different groups were subject to daily oral administration of 1 mg/kg, 5 mg/kg and 20 mg/kg of Example 1 respectively.

Plasma protein binding = type: in vitro ADME; settings: mouse, rat, minipig, monkey, human
[4] = CSF Kp,uu measurement for brain penetration, minipig; type: in vivo; settings: Multiple oral dosing @ 300 mg/kg/day (2-week DRF)
Experimental: (§4) The CSF Kp,uu is the ratio of the concentration in cerebrospinal fluid (CSF): unbound plasma exposure and Kp,uu values≥1 indicate good brain penetration. For compound Example 1, single oral dose studies in mouse and rat, sequential plasma and CSF concentrations (up to 24 h post dose) were measured by LC-MS/MS to calculate the CSF Kp,uu. For multiple oral dose studies in rat and minipig the plasma and CSF concentrations approximating Tmax (3 h post last dose) were measured by LC-MS/MS and used to calculate the CSF Kp,uu.

P-gp = P-gp apical efflux ratio, LLC-PK1 cell line transfected with MDR1; type: in vitro ADME
[5] = CSF Kp,uu measurement for brain penetration, rat; type: in vivo
Experimental: as §4

[6] = CSF Kp,uu measurement for brain penetration, mouse; type: in vivo; settings: Single oral dose 10 mg/kg
Experimental: as §4

[7] = BCS (biopharmaceutics classification system); type: physicochemical
[8] = literature; cited from earlier work
[9] = read-out: p-ERK EC50 (nM) conc. (nM) at which the compound induces P-ERK activation of 50% of that induced by dabrafenib (Positive control paradox inducer) HCT-116; HCT-116 cells; not applicable if activation does not reach 50% of dabrafenib maximum
[10] = HCT-116 cells; maximum P-ERK signal as percentage of highest dabrafenib signal

Structure (SMILES): CCCS(=O)(=O)Nc1ccc(F)c(Oc2ccc3ncn(C)c(=O)c3c2)c1C#N [AR-25]
IC50 [1]: 1.1 nM | EC50 [2, 9]: 9.6 nM

IC50 [1]: 311 nM | EC50 ([2]; HCT-116 cells; not applicable if activation does not reach 50% of dabrafenib maximum; read-out: p-ERK EC50 (nM) conc. (nM) at which the compound induces P-ERK activation of 50% of that induced by dabrafenib (Positive control paradox inducer) HCT-116): > 1000 nM
Structure (SMILES): Cn1cnc2ccc(Oc3c(Cl)ccc(NS(=O)(=O)N4CCCC4)c3C#N)cc2c1=O [AR-31]
Percentage of Maximum paradox inducing effect from dabrafenib [2, 10]: 51.2%

Plasma protein binding, Class (Plasma protein binding): Very high | fraction unbound (Plasma protein binding; plasma): ≤ 0.01 | Minipig CSF Kp,uu, Class [4]: High | Kp uu at 3 h ([4]; minipig, CSF / unbound plasma, 3 h post last dose): ≥ 1 | P-gp Apical Efflux ratio, Class (P-gp; LLC-PK1 transfected with MDR1): Low | efflux ratio (P-gp; human, LLC-PK1 transfected with MDR1, presence/absence of P-gp inhibitor): 1.5 | Rat CSF Kp,uu, Class ([5]; Multiple oral dosing @ 300 mg/kg/day (2-week DRF)): High | Rat CSF Kp,uu, Class ([5]; Single oral dose 20 mg/kg): High | Kp uu at 3 h ([5]; rat, CSF / unbound plasma, Multiple oral dosing @ 300 mg/kg/day (2-week DRF), 3 h post last dose): ≥ 1 | Kp uu ([5]; rat, CSF / unbound plasma, Single oral dose 20 mg/kg): ≥ 1 | Mouse CSF Kp,uu, Class [6]: High | Kp uu ([6]; mouse, CSF / unbound plasma): ≥ 1 | BCS (biopharmaceutics classific. system) Class [7]: 2
Structure (SMILES): Cn1cnc2ccc(Oc3c(F)ccc(NS(=O)(=O)N4CC[C@@H](F)C4)c3C#N)cc2c1=O [Example 1, (3R)-N-[2-cyano-4-fluoro-3-(3-methyl-4-oxo-quinazolin-6-yl)oxy-phenyl]-3-fluoro-pyrrolidine-1-sulfonamide]
Antitumor activity, intracranial A375-Luc [3]: dose dependent antitumor activity | Temporal relationship of plasma and CSF (distribution into CSF) ([5]; single dose rat PK study, up to 24 h post dose): (PK) study and indicated fast and extensive distribution into CSF.

Structure (SMILES): Cn1cnc2ccc(Oc3c(F)ccc(NS(=O)(=O)N4CC[C@H](F)C4)c3C#N)cc2c1=O [Example 2, (3S)-N-[2-cyano-4-fluoro-3-(3-methyl-4-oxo-quinazolin-6-yl)oxy-phenyl]-3-fluoro-pyrrolidine-1-sulfonamide]
Percentage of Maximum paradox inducing effect from dabrafenib [2, 10]: 46.2%

Structure (SMILES): CC(C)(C)c1nc(-c2cccc(NS(=O)(=O)c3c(F)cccc3F)c2F)c(-c2ccnc(N)n2)s1 [Dabrafenib]
Brain permeability [8]: very poor brain permerability

Structure (SMILES): COC(=O)N[C@@H](C)CNc1nccc(-c2cn(C(C)C)nc2-c2cc(Cl)cc(NS(C)(=O)=O)c2F)n1 [Encorafenib]
Brain permeability [8]: very poor brain permerability

Structure (SMILES): CCCS(=O)(=O)Nc1ccc(F)c(C(=O)c2c[nH]c3ncc(-c4ccc(Cl)cc4)cc23)c1F [Vemurafenib]
Brain permeability [8]: very poor brain permerability

IC50 [1]: 406 nM | EC50 [2, 9]: > 1000 nM
Structure (SMILES): CN(C)S(=O)(=O)Nc1ccc(Cl)c(Oc2ccc3ncn(C)c(=O)c3c2)c1C#N [AR-30]
Percentage of Maximum paradox inducing effect from dabrafenib [2, 10]: 59%

Reference: US20240174621A1, “METHYLQUINAZOLINONE DERIVATIVES” (Hoffmann-La Roche Inc., priority 2019, published 2024)
